According to PubChem BioAssay AID256 (DTP/NCI, 2004):
“And” between values parts separate entries of the source, which are not always exact repeats. Identical values can stand only once. Inconclusive results and toxic doses are left out. The calls were made as follows: active = survival T/C of 150% or more; inactive = T/C below 125% in these data.

System: CD2F1 mice, L1210 leukemia ip, survival T/C
Test: NCI In Vivo Anticancer Drug Screen. Data for tumor model L1210 Leukemia (intraperitoneal) in CD2F1 (CDF1) mice
Conditions: higher = longer survival
In short: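 Mice carrying a transplanted tumor received test compound or vehicle alone. The value is the measurement in the treated group divided by that in the vehicle-treated control group.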

[1] = endpoint: mean survival time, dose: 12.5 mg/kg/injection, schedule: Q01DX009 (ip), vehicle: saline with Tween-80
[2] = endpoint: mean survival time, dose: 25.0 mg/kg/injection, schedule: Q01DX009 (ip), vehicle: saline with Tween-80
[3] = endpoint: mean survival time, dose: 50.0 mg/kg/injection, schedule: Q01DX001 (ip), vehicle: saline with Tween-80
[4] = endpoint: mean survival time, dose: 50.0 mg/kg/injection, schedule: Q01DX009 (ip), vehicle: saline with Tween-80
[5] = endpoint: mean survival time, dose: 100.0 mg/kg/injection, schedule: Q04DX002 (ip), vehicle: saline with Tween-80
[6] = endpoint: mean survival time, dose: 200.0 mg/kg/injection, schedule: Q04DX002 (ip), vehicle: saline with Tween-80
[7] = endpoint: mean survival time, dose: 400.0 mg/kg/injection, schedule: Q04DX002 (ip), vehicle: saline with Tween-80
[8] = endpoint: mean survival time, dose: 100.0 mg/kg/injection, schedule: Q04DX003 (ip), vehicle: saline with Tween-80
[9] = endpoint: mean survival time, dose: 200.0 mg/kg/injection, schedule: Q04DX003 (ip), vehicle: saline with Tween-80
[10] = endpoint: mean survival time, dose: 400.0 mg/kg/injection, schedule: Q04DX003 (ip), vehicle: saline with Tween-80
[11] = endpoint: mean survival time, dose: 100.0 mg/kg/injection, schedule: Q01DX009 (ip), vehicle: saline with Tween-80
[12] = endpoint: mean survival time, dose: 200.0 mg/kg/injection, schedule: Q01DX009 (ip), vehicle: saline with Tween-80
[13] = endpoint: mean survival time, dose: 400.0 mg/kg/injection, schedule: Q01DX009 (ip), vehicle: saline with Tween-80
[14] = endpoint: mean survival time, dose: 25.0 mg/kg/injection, schedule: Q04DX003 (ip), vehicle: saline
[15] = endpoint: mean survival time, dose: 50.0 mg/kg/injection, schedule: Q04DX003 (ip), vehicle: saline
[16] = endpoint: mean survival time, dose: 100.0 mg/kg/injection, schedule: Q04DX003 (ip), vehicle: saline
[17] = endpoint: mean survival time, dose: 12.5 mg/kg/injection, schedule: Q04DX003 (ip), vehicle: saline with Tween-80
[18] = endpoint: mean survival time, dose: 200.0 mg/kg/injection, schedule: Q04DX003 (ip), vehicle: saline

Measured: T/C

O=[N+]([O-])c1ccc(Cn2cc[n+](Cc3ccc([N+](=O)[O-])cc3)c2)cc1
inactive: [1] 98 % of control | endpoint: mean survival time, dose: 25.0 mg/kg/injection, schedule: Q01DX001 (ip), vehicle: saline with Tween-80 108 % of control | [2] 90 % of control | [3] 104 % of control | [4] 93 % of control | endpoint: mean survival time, dose: 100.0 mg/kg/injection, schedule: Q01DX001 (ip), vehicle: saline with Tween-80 98 % of control

O=c1ccnc(SCc2ccccc2)[nH]1
inactive: [5] 105 % of control | [6] 101 % of control | [7] 94 % of control

Cc1ccc(S(=O)(=O)N(O)c2ccccc2)cc1
inactive: [8] 100 % of control | [9] 100 % of control | [10] 103 % of control

COC(CCN1C(=O)c2ccccc2C1=O)C(Br)C(=O)O (stereo not drawn)
inactive: [11] 92 % of control | [8] 101 % of control | [12] 92 % of control | [9] 97 % of control | [13] 89 % of control | [10] 98 % of control

O=C(/C=N/O)Nc1ccccc1
inactive: [8] 101 % of control | [9] 100 % of control | [10] 95 % of control

CC1OC(n2cc(Cl)c(=O)[nH]c2=O)C2OC(C)(C)OC2C1=O (stereo not drawn)
inactive: endpoint: median survival time, dose: 25.0 mg/kg/injection, schedule: Q01DX005 (ip), vehicle: Klucel (hydroxypropylcellulose) (HPC) 102 % of control | endpoint: median survival time, dose: 50.0 mg/kg/injection, schedule: Q01DX005 (ip), vehicle: Klucel (hydroxypropylcellulose) (HPC) 100 % of control | endpoint: median survival time, dose: 100.0 mg/kg/injection, schedule: Q01DX005 (ip), vehicle: Klucel (hydroxypropylcellulose) (HPC) 102 % of control | endpoint: median survival time, dose: 200.0 mg/kg/injection, schedule: Q01DX005 (ip), vehicle: Klucel (hydroxypropylcellulose) (HPC) 107 % of control

CCN(C(=O)Nc1ccccc1OC)c1ccccc1
inactive: [8] 98 % of control | [9] 98 % of control | [10] 93 % of control

CC(NC(=O)OCc1ccccc1)C(=O)O (stereo not drawn)
inactive: [11] 97 % of control | [8] 100 % of control | [12] 94 % of control | [9] 105 % of control | [10] 103 % of control

O=C(C[n+]1ccc2ccccc2c1)c1ccc(Br)cc1
inactive: endpoint: mean survival time, dose: 12.5 mg/kg/injection, schedule: Q04DX003 (ip), vehicle: saline 98 % of control | endpoint: mean survival time, dose: 25.0 mg/kg/injection, schedule: Q01DX009 (ip), vehicle: saline 98 % of control | [14] 98 % of control | endpoint: mean survival time, dose: 50.0 mg/kg/injection, schedule: Q01DX009 (ip), vehicle: saline 102 % of control | [15] 101 % of control | [16] 97 % of control

Nc1nc2ccccc2c2c1C(=O)NC2=O
inactive: [4] 103 % of control | [11] 100 % of control | [8] 95 % of control | [12] 96 % of control | [9] 91 % of control

BrC1CCCCCCC1
inactive: [8] 92 % of control | [9] 98 % of control | [10] 95 % of control

NC(C(=O)O)C(O)C(=O)O (stereo not drawn)
inactive: endpoint: mean survival time, dose: 37.5 mg/kg/injection, schedule: Q01DX009 (ip), vehicle: saline 101 % of control | endpoint: mean survival time, dose: 75.0 mg/kg/injection, schedule: Q01DX009 (ip), vehicle: saline 97 % of control | endpoint: mean survival time, dose: 150.0 mg/kg/injection, schedule: Q01DX009 (ip), vehicle: saline 98 % of control

CCOC(=O)/C(C)=C(/N)c1ccccc1
inactive: [8] 98 % of control | [9] 95 % of control | [10] 92 % of control

[Cl][Pt+2][Cl].[NH-]c1cccc(C(F)(F)F)c1.[NH-]c1cccc(C(F)(F)F)c1
inactive: [17] 95 % of control | endpoint: mean survival time, dose: 25.0 mg/kg/injection, schedule: Q04DX003 (ip), vehicle: saline with Tween-80 100 % of control | endpoint: mean survival time, dose: 50.0 mg/kg/injection, schedule: Q04DX003 (ip), vehicle: saline with Tween-80 103 % of control

CCCCCCCCCCCCCCCC(=O)N1CC[N+](C)(CC2=CC3(Cl)C(Cl)=C(Cl)C2(Cl)C3(Cl)Cl)CC1 (stereo not drawn)
inactive: endpoint: mean survival time, dose: 75.0 mg/kg/injection, schedule: Q01DX001 (ip), vehicle: saline 93 % of control | endpoint: mean survival time, dose: 150.0 mg/kg/injection, schedule: Q01DX001 (ip), vehicle: saline 100 % of control

C[N+](C)(C)C12CCCC1S(=O)(=O)C2 (stereo not drawn)
inactive: [14] 106 % of control | [15] 98 % of control | [16] 96 % of control

CCCCCC(C)C1(CCCC)NC(C)(C)CC(C)O1 (stereo not drawn)
inactive: [16] 95 % of control | [18] 90 % of control

CN(C)CCOc1ccc2c(c1)C/C(=C/c1ncc([N+](=O)[O-])n1C)C2=O
inactive: endpoint: mean survival time, dose: 6.25 mg/kg/injection, schedule: Q01DX009 (ip), vehicle: saline with Tween-80 96 % of control and 98 % of control | [1] 107 % of control | [2] 107 % of control and 108 % of control | [4] 117 % of control and 107 % of control | [11] 119 % of control and 104 % of control | [12] 111 % of control

CC(Cl)CN(CC(C)Cl)c1ccc2c(c1)Cc1cc(F)ccc1-2 (stereo not drawn)
inactive: [8] 98 % of control | [9] 96 % of control | [10] 100 % of control

Cc1ccc(C2CC3c4ccccc4C2C2CCCCN32)cc1 (stereo not drawn)
inactive: endpoint: mean survival time, dose: 1.56 mg/kg/injection, schedule: Q01DX009 (ip), vehicle: water 88 % of control and 86 % of control | endpoint: mean survival time, dose: 3.13 mg/kg/injection, schedule: Q01DX009 (ip), vehicle: water 86 % of control | endpoint: mean survival time, dose: 6.25 mg/kg/injection, schedule: Q01DX009 (ip), vehicle: water 88 % of control | endpoint: mean survival time, dose: 12.5 mg/kg/injection, schedule: Q01DX009 (ip), vehicle: water 88 % of control and 93 % of control | endpoint: mean survival time, dose: 25.0 mg/kg/injection, schedule: Q01DX009 (ip), vehicle: water 89 % of control and 102 % of control

CCCCCCCCCCCOc1ccc(Cl)cc1Cl
inactive: [5] 90 % of control | [6] 93 % of control | [7] 86 % of control

O=[As](O)(CC(O)c1ccccc1)c1cccc(Cl)c1 (stereo not drawn)
inactive: endpoint: mean survival time, dose: 6.25 mg/kg/injection, schedule: Q04DX003 (ip), vehicle: saline with Tween-80 104 % of control | [17] 119 % of control

NCCNC(=O)c1ccccc1
inactive: [16] 103 % of control | [18] 101 % of control | endpoint: mean survival time, dose: 400.0 mg/kg/injection, schedule: Q04DX003 (ip), vehicle: saline 100 % of control

COc1ccc2c3c(ccc2c1)C1CCC(=O)C1(C)CC3 (stereo not drawn)
inactive: [11] 102 % of control | [12] 96 % of control | [13] 98 % of control

Cc1cccc(NC(=O)/C=C/c2ccccc2)c1C
inactive: [5] 98 % of control | [6] 94 % of control | [7] 94 % of control

Cc1ccc2nc(-c3ccc(NC(=O)Nc4cccc(F)c4)cc3)sc2c1
inactive: [4] 97 % of control | [11] 97 % of control

C=CCc1cc(O)c(CC=C)cc1O
inactive: [5] 95 % of control | [6] 95 % of control

COC1=C(OC)C(=O)C(N(C)C)=C(CO)C1=O
inactive: endpoint: median survival time, dose: 15.0 mg/kg/injection, schedule: Q01DX005 (ip), vehicle: saline 102 % of control | endpoint: median survival time, dose: 30.0 mg/kg/injection, schedule: Q01DX005 (ip), vehicle: saline 100 % of control | endpoint: median survival time, dose: 60.0 mg/kg/injection, schedule: Q01DX005 (ip), vehicle: saline 103 % of control | endpoint: median survival time, dose: 120.0 mg/kg/injection, schedule: Q01DX005 (ip), vehicle: saline 107 % of control

N#CC(C#N)=C(C#N)c1ccccc1
inactive: [1] 96 % of control | [2] 98 % of control | [3] 94 % of control | [4] 94 % of control
